Legend:
Type in all cases: cell-based, human
[1] = test system: PBM cells; test: Cell viability resazurin assay, PBM cells; details: for viability of PBM cells relative to control: ± SD
Source text: Peripheral blood mononuclear (PBM) cells were isolated from a leukocyte-buffy coat collected from the blood of healthy, non-smoking donors at the Blood Bank in Lodz, Poland. The study protocol received approval from the Committee for Research on Human Subjects of the University of Lodz (17/KBBN-UŁ/III/2019). The initial step of isolation process involved mixing buffy coats with PBS in a 1:1 ratio. Subsequently, the mixture was centrifuged using a density gradient of Lymphosep (Cytogen, Zgierz, Poland) at 2200 RPM for 20 min, employing the lowest values for acceleration and deceleration. PBM cells were collected and washed three times by centrifugation with 1 × PBS. Following isolation, the cells were suspended in RPMI 1640 medium.
(§1) Firstly, resazurin salt powder was dissolved in sterile 1 × PBS. Cells were then seeded on the 96-well plates in the count of 1 × 10^4 in the case of HL-60 cells and of 5 × 10^4 for PBM cells and of 5 × 10^3 for A549 cells per well. A549 cells were seeded 24 h prior to treatment with the complexes to allow cell adherence to 96-well plate. Iron(II) complexes were added to wells to obtain final concentrations of 0.5, 1, 2.5, 5, 10, 25, 50, 100 and 250 μM. Subsequently, plates were incubated at 37 °C in 5% CO2 for 2 h and 24 h. After that 10 μl of resazurin salt was added to each well and plates again were incubated in 37 °C in 5% CO2 for 2 h. Finally, fluorescence was measured with microplate reader Synergy HT (Bio-Tek Instruments, USA) using an excitation wavelength of 530/25 and an emission wavelength of 590/35 nm. The effects of iron(II) complexes were calculated as the percentage of control fluorescence. IC50 (half maximal inhibitory concentration) values were calculated using a website algorithm (https://www.aatbio.com/tools/ic50-calculator). All assays were performed in octuplicate.

[2] = test system: HL-60 cells; test: Cell viability resazurin assay, HL-60 cells; details: for viability of HL-60 cells relative to control: ± SD
Description: (§2) The A549 (human non-small cell lung cancer) cell line was obtained from the American Type Culture Collection (ATCC) and cultured in Dulbecco's Modified Eagle Medium (DMEM) with 10% fetal bovine serum (FBS), 2 mM L-Glutamine, 25 mM HEPES and penicillin/streptomycin solution (100 U/ml and 100 µg/ml, respectively). The HL-60 (human promyelocytic leukemia) cell line was also obtained from the American Type Culture Collection (ATCC) and cultured in Iscove’s Modified Dulbecco's Medium (IMDM) with 15% fetal bovine serum (FBS), 2 mM L-Glutamine, 25 mM HEPES and penicillin/streptomycin solution (100 U/ml and 100 µg/ml, respectively). Both cell lines were cultured in flasks at 37 °C in 5% CO2 and sub-cultured every 2–3 days to maintain exponential growth.
as §1

[3] = test system: A549 cells; test: Cell viability resazurin assay, A549 cells; details: for viability of A549 cells relative to control: ± SD
Description: as §2, §1

O=C1C=CC(=O)[N-]1.[C-]#[O+].[Fe+2].c1cc[cH-]c1.c1ccc(OP(Oc2ccccc2)Oc2ccccc2)cc1 [3b, CpFe(CO)(P(OPh)3)(η^1-N-maleimidato)]
viability of PBM cells relative to control ([1]; 2 h incubation, 0.5 µM): 98.5 ± 2.18% | viability of PBM cells relative to control ([1]; 2 h incubation, 1 µM): 99.88 ± 2.57% | viability of PBM cells relative to control ([1]; 2 h incubation, 2.5 µM): 97.35 ± 5.51% | viability of PBM cells relative to control ([1]; 2 h incubation, 5 µM): 100.32 ± 3.02% | viability of PBM cells relative to control ([1]; 2 h incubation, 10 µM): 99.06 ± 3.6% | viability of PBM cells relative to control ([1]; 2 h incubation, 25 µM): 98.42 ± 1.87% | viability of PBM cells relative to control ([1]; 2 h incubation, 50 µM): 100.03 ± 0.88% | viability of PBM cells relative to control ([1]; 2 h incubation, 100 µM): 98.48 ± 0.54% | viability of PBM cells relative to control ([1]; 2 h incubation, 250 µM): 99.51 ± 1.24% | IC50 ([1]; 24 h incubation): 5.8 µM | viability of PBM cells relative to control ([1]; 24 h incubation, 0.5 µM): 97.8 ± 2.01% | viability of PBM cells relative to control ([1]; 24 h incubation, 1 µM): 98.46 ± 7.18% | viability of PBM cells relative to control ([1]; 24 h incubation, 2.5 µM): 94.41 ± 2.27% | viability of PBM cells relative to control ([1]; 24 h incubation, 5 µM): 52.91 ± 0.63% | viability of PBM cells relative to control ([1]; 24 h incubation, 10 µM): 49.35 ± 1.94% | viability of PBM cells relative to control ([1]; 24 h incubation, 25 µM): 31 ± 1.1% | viability of PBM cells relative to control ([1]; 24 h incubation, 50 µM): 28.33 ± 2.17% | viability of PBM cells relative to control ([1]; 24 h incubation, 100 µM): 16.65 ± 0.55% | viability of PBM cells relative to control ([1]; 24 h incubation, 250 µM): 13.82 ± 0.52% | viability of HL-60 cells relative to control ([2]; 2 h incubation, 0.5 µM): 108.58 ± 5.93% | viability of HL-60 cells relative to control ([2]; 2 h incubation, 1 µM): 105.27 ± 5.97% | viability of HL-60 cells relative to control ([2]; 2 h incubation, 2.5 µM): 111.13 ± 4.29% | viability of HL-60 cells relative to control ([2]; 2 h incubation, 5 µM): 116.45 ± 4.31% | viability of HL-60 cells relative to control ([2]; 2 h incubation, 10 µM): 125.67 ± 4.5% | viability of HL-60 cells relative to control ([2]; 2 h incubation, 25 µM): 140.68 ± 7.01% | viability of HL-60 cells relative to control ([2]; 2 h incubation, 50 µM): 116.21 ± 2.09% | viability of HL-60 cells relative to control ([2]; 2 h incubation, 100 µM): 70.87 ± 2.53% | viability of HL-60 cells relative to control ([2]; 2 h incubation, 250 µM): 23.24 ± 0.25% | HL-60 cell viability, sharp increase up to ([2]; 2 h incubation, concentration not given): approximately 140% | IC50 ([2]; 24 h incubation): 9.09 µM | viability of HL-60 cells relative to control ([2]; 24 h incubation, 0.5 µM): 101.68 ± 1.04% | viability of HL-60 cells relative to control ([2]; 24 h incubation, 1 µM): 98.91 ± 4.85% | viability of HL-60 cells relative to control ([2]; 24 h incubation, 2.5 µM): 91.42 ± 3.16% | viability of HL-60 cells relative to control ([2]; 24 h incubation, 5 µM): 72.37 ± 3.19% | viability of HL-60 cells relative to control ([2]; 24 h incubation, 10 µM): 49.27 ± 1.71% | viability of HL-60 cells relative to control ([2]; 24 h incubation, 25 µM): 3.18 ± 0.36% | viability of HL-60 cells relative to control ([2]; 24 h incubation, 50 µM): 0.99 ± 0.02% | viability of HL-60 cells relative to control ([2]; 24 h incubation, 100 µM): 0.96 ± 0.1% | viability of HL-60 cells relative to control ([2]; 24 h incubation, 250 µM): 0.94 ± 0.06% | viability of A549 cells relative to control ([3]; 2 h incubation, 0.5 µM): 94.42 ± 12.46% | viability of A549 cells relative to control ([3]; 2 h incubation, 1 µM): 97.15 ± 8.30% | viability of A549 cells relative to control ([3]; 2 h incubation, 2.5 µM): 96.59 ± 9.16% | viability of A549 cells relative to control ([3]; 2 h incubation, 5 µM): 90.46 ± 7.14% | viability of A549 cells relative to control ([3]; 2 h incubation, 10 µM): 93.75 ± 11.55% | viability of A549 cells relative to control ([3]; 2 h incubation, 25 µM): 97.77 ± 7.39% | viability of A549 cells relative to control ([3]; 2 h incubation, 50 µM): 104.82 ± 7.84% | viability of A549 cells relative to control ([3]; 2 h incubation, 100 µM): 97.69 ± 11.65% | viability of A549 cells relative to control ([3]; 2 h incubation, 250 µM): 97.95 ± 13.58% | IC50 ([3]; 24 h incubation): 19.2 µM | viability of A549 cells relative to control ([3]; 24 h incubation, 0.5 µM): 91.38 ± 8.55% | viability of A549 cells relative to control ([3]; 24 h incubation, 1 µM): 92.49 ± 11.20% | viability of A549 cells relative to control ([3]; 24 h incubation, 2.5 µM): 78.64 ± 6.01% | viability of A549 cells relative to control ([3]; 24 h incubation, 5 µM): 80.46 ± 7.49% | viability of A549 cells relative to control ([3]; 24 h incubation, 10 µM): 80.04 ± 11.40% | viability of A549 cells relative to control ([3]; 24 h incubation, 25 µM): 25.66 ± 3.11% | viability of A549 cells relative to control ([3]; 24 h incubation, 50 µM): 22.34 ± 2.60% | viability of A549 cells relative to control ([3]; 24 h incubation, 100 µM): 42.71 ± 5.87% | viability of A549 cells relative to control ([3]; 24 h incubation, 250 µM): 28.61 ± 5.09%

Reference: paper PMC10920834, “Synthesis, anticancer activity, and molecular docking of half-sandwich iron(II) cyclopentadienyl complexes with maleimide and phosphine or phosphite ligands” (Scientific Reports, 2024)
